Square brackets hold non-standard residues; d marks the D form. Phe(4-F) = N[C@@H](Cc1ccc(F)cc1)C(=O)O; 2Nal = N[C@@H](Cc1ccc2ccccc2c1)C(=O)O; d2Nal = N[C@H](Cc1ccc2ccccc2c1)C(=O)O; Pip = O=C(O)[C@@H]1CCCCN1

The test relates to HeLa cells. As to the kind of experiment: Cellular uptake / cytosolic delivery efficiency of NF-labelled peptides by flow cytometry. Type of test: cell-based. Particulars: 2 h, 5 mM naphthofluorescein-labelled peptide, relative to CPP 1 (100%), mean ± S.D. of three independent experiments. An excerpt: Absolute cytosolic delivery efficiency is the ratio of cytosolic concentration of a CPP (or a CPP-cargo conjugate) over the concentration of the CPP (or the CPP-cargo conjugate) in the growth medium. Relative cytosolic delivery efficiency refers to the concentration of a CPP in the cytosol compared to the concentration of a control CPP in the cytosol. Quantification can be achieved by fluorescently labeling the CPP (e.g., with a FTIC dye) and measuring the fluorescence intensity using techniques well-known in the art.
In particular embodiments, relative cytosolic delivery efficiency is determined by comparing (i) the amount of a CPP of the invention internalized by a cell type (e.g., HeLa cells) to (ii) the amount of the control CPP internalized by the same cell type. To measure relative cytosolic delivery efficiency, the cell type may be incubated in the presence of a cell-penetrating peptide of the invention for a specified period of time (e.g., 30 minutes, 1 hour, 2 hours, etc.) after which the amount of the CPP internalized by the cell is quantified using methods known in the art, e.g., fluorescence microscopy. Separately, the same concentration of the control CPP is incubated in the presence of the cell type over the same period of time, and the amount of the control CPP internalized by the cell is quantified.
To determine cellular uptake efficiency of the CPPs disclosed herein, HeLa cells were cultured in 12-well plates (1.5×10^5 cells per well) overnight. The cells were incubated for 2 h with […] naphthofluorescein (NF)-labelled peptide in cellular media. At the end of incubation, the cells were washed with DPBS twice, detached from the plate with 0.25% trypsin, diluted into clear DMEM, pelleted at 250 g for 5 min, washed twice with DPBS, resuspended in DPBS, and analyzed on a BD FACS LSR II flow cytometer. For NF-labelled peptides, a 633-nm laser was used for excitation and the fluorescence emission was analyzed in the APC channel. Absolute cellular uptake efficiency was determined by comparing the concentration (via fluorescence intensity) of the CPP in the cytosol to the concentration in the extracellular medium.
Background: A flow cytometer gives signals particle by particle.
Regarding “cyclo(Pip-Nal-Arg-Glu-arg-arg-glu) (cyclo([Pip][2Nal]RE[dR][dR][dE]); SMILES N=C(N)NCCC[C@@H]1NC(=O)[C@H](Cc2ccc3ccccc3c2)NC(=O)[C@@H]2CCCCN2C(=O)[C@@H](CCC(=O)O)NC(=O)[C@@H](CCCNC(=N)N)NC(=O)[C@@H](CCCNC(=N)N)NC(=O)[C@H](CCC(=O)O)NC1=O) [Pin1 15]”, the “Relative Cytosolic Delivery Efficiency” value stood at 7.7 ± 0.5%.

Regarding “cyclo(Pip-Nal-Nal-Arg-arg-arg-Glu) [Pin1 18]”, the “Relative Cytosolic Delivery Efficiency” value came to 340 ± 130%. The result for “cyclo(Pip-Nal-Nal-Arg-arg-arg-glu) [Pin1 17]” reads 506 ± 120%; that for “cyclo(Pip-Nal-Phe-Arg-arg-arg-Glu) [Pin1 20]”, 15 ± 6%. The result for “cyclo(Pip-Nal-Phe-Arg-arg-arg-glu) (cyclo([Pip][2Nal]FR[dR][dR][dE]); SMILES N=C(N)NCCC[C@@H]1NC(=O)[C@H](Cc2ccccc2)NC(=O)[C@H](Cc2ccc3ccccc3c2)NC(=O)[C@@H]2CCCCN2C(=O)[C@@H](CCC(=O)O)NC(=O)[C@@H](CCCNC(=N)N)NC(=O)[C@@H](CCCNC(=N)N)NC1=O) [Pin1 19]” reads 19 ± 16%; that for “cyclo(Pip-Nal-nal-Arg-arg-arg-Glu) [Pin1 23]”, 215 ± 86%. Turning to “cyclo(Pip-Nal-nal-Arg-arg-arg-glu) [Pin1 24]”, the “Relative Cytosolic Delivery Efficiency” value stood at 141 ± 64%. For “cyclo(Pip-Nal-phe-Arg-arg-arg-Glu) (cyclo([Pip][2Nal][dF]R[dR][dR]E); SMILES N=C(N)NCCC[C@@H]1NC(=O)[C@@H](Cc2ccccc2)NC(=O)[C@H](Cc2ccc3ccccc3c2)NC(=O)[C@@H]2CCCCN2C(=O)[C@H](CCC(=O)O)NC(=O)[C@@H](CCCNC(=N)N)NC(=O)[C@@H](CCCNC(=N)N)NC1=O) [Pin1 22]”, the “Relative Cytosolic Delivery Efficiency” value was 15 ± 6%. With “cyclo(Pip-Nal-phe-Arg-arg-arg-glu) (cyclo([Pip][2Nal][dF]R[dR][dR][dE]); SMILES N=C(N)NCCC[C@@H]1NC(=O)[C@@H](Cc2ccccc2)NC(=O)[C@H](Cc2ccc3ccccc3c2)NC(=O)[C@@H]2CCCCN2C(=O)[C@@H](CCC(=O)O)NC(=O)[C@@H](CCCNC(=N)N)NC(=O)[C@@H](CCCNC(=N)N)NC1=O) [Pin1 21]”, the “Relative Cytosolic Delivery Efficiency” value is listed as 27 ± 15%. In the case of cyclo(RFFFRRRQ) (cyclic) [SAR 48], the “Relative Cytosolic Delivery Efficiency” value is given as 167 ± 10%. Take cyclo(RFFRFRQ) (cyclic) [SAR 43]: the “Relative Cytosolic Delivery Efficiency” value was determined as 96 ± 31%. Regarding cyclo(RFFRRRQ) (cyclic) [SAR 31], the “Relative Cytosolic Delivery Efficiency” value was determined as 63 ± 19%. Consider cyclo(RFFRRRRQ) (cyclic) [SAR 46], for which the “Relative Cytosolic Delivery Efficiency” value stood at 104 ± 5%. As to cyclo(RFRRFRQ) (cyclic) [SAR 32], the “Relative Cytosolic Delivery Efficiency” value was 94 ± 9%. Regarding cyclo(RRFFFRQ) (cyclic) [SAR 37], the “Relative Cytosolic Delivery Efficiency” value was 172 ± 24%.

On to cyclo(RRFFFRRQ) (cyclic) [SAR 49], for which the “Relative Cytosolic Delivery Efficiency” value turned out to be 112 ± 20%.

Consider cyclo(RRFFRRRQ) (cyclic) [SAR 47], for which the “Relative Cytosolic Delivery Efficiency” value came to 115 ± 20%.

Turning to “cyclo(XXRRRRQ) (cyclo([Phe(4-F)][Phe(4-F)]RRRRQ); SMILES N=C(N)NCCC[C@@H]1NC(=O)[C@H](CCCNC(=N)N)NC(=O)[C@H](CCCNC(=N)N)NC(=O)[C@H](Cc2ccc(F)cc2)NC(=O)[C@H](Cc2ccc(F)cc2)NC(=O)[C@H](CCC(N)=O)NC(=O)[C@H](CCCNC(=N)N)NC1=O) [SAR 56]”, the “Relative Cytosolic Delivery Efficiency” value stood at 165 ± 22%. The result for “cyclo(fFfRrRQ) (cyclo([dF]F[dF]R[dR]RQ); SMILES N=C(N)NCCC[C@@H]1NC(=O)[C@@H](CCCNC(=N)N)NC(=O)[C@H](CCCNC(=N)N)NC(=O)[C@@H](Cc2ccccc2)NC(=O)[C@H](Cc2ccccc2)NC(=O)[C@@H](Cc2ccccc2)NC(=O)[C@H](CCC(N)=O)NC1=O) [SAR 59]” reads 185 ± 91%; that for “cyclo(fFfrRrQ) (cyclo([dF]F[dF][dR]R[dR]Q); SMILES N=C(N)NCCC[C@@H]1NC(=O)[C@@H](CCCNC(=N)N)NC(=O)[C@@H](Cc2ccccc2)NC(=O)[C@H](Cc2ccccc2)NC(=O)[C@@H](Cc2ccccc2)NC(=O)[C@H](CCC(N)=O)NC(=O)[C@@H](CCCNC(=N)N)NC1=O) [SAR 58]”, 280 ± 106%; that for “cyclo(fFΦrRrQ) (cyclo([dF]F[d2Nal][dR]R[dR]Q); SMILES N=C(N)NCCC[C@@H]1NC(=O)[C@@H](CCCNC(=N)N)NC(=O)[C@@H](Cc2ccc3ccccc3c2)NC(=O)[C@H](Cc2ccccc2)NC(=O)[C@@H](Cc2ccccc2)NC(=O)[C@H](CCC(N)=O)NC(=O)[C@@H](CCCNC(=N)N)NC1=O) [SAR 61]”, 330 ± 101%.

Turning to “cyclo(fΦfrRrQ) (cyclo([dF][2Nal][dF][dR]R[dR]Q); SMILES N=C(N)NCCC[C@@H]1NC(=O)[C@@H](CCCNC(=N)N)NC(=O)[C@@H](Cc2ccccc2)NC(=O)[C@H](Cc2ccc3ccccc3c2)NC(=O)[C@@H](Cc2ccccc2)NC(=O)[C@H](CCC(N)=O)NC(=O)[C@@H](CCCNC(=N)N)NC1=O) [SAR 62]”, the “Relative Cytosolic Delivery Efficiency” value is reported as 357 ± 59%. Turning to “cyclo(fΦrRrQ) (cyclo([dF][2Nal][dR]R[dR]Q); SMILES N=C(N)NCCC[C@@H]1NC(=O)[C@@H](CCCNC(=N)N)NC(=O)[C@H](Cc2ccc3ccccc3c2)NC(=O)[C@@H](Cc2ccccc2)NC(=O)[C@H](CCC(N)=O)NC(=O)[C@@H](CCCNC(=N)N)NC1=O) [SAR 65]”, the “Relative Cytosolic Delivery Efficiency” value came to 172 ± 37%. In the case of “cyclo(ΦFfrRrQ) (cyclo([d2Nal]F[dF][dR]R[dR]Q); SMILES N=C(N)NCCC[C@@H]1NC(=O)[C@@H](CCCNC(=N)N)NC(=O)[C@@H](Cc2ccccc2)NC(=O)[C@H](Cc2ccccc2)NC(=O)[C@@H](Cc2ccc3ccccc3c2)NC(=O)[C@H](CCC(N)=O)NC(=O)[C@@H](CCCNC(=N)N)NC1=O) [SAR 63]”, the “Relative Cytosolic Delivery Efficiency” value is reported as 50 ± 9%.

(Values after US20240360174A1, “CELL-PENETRATING PEPTIDE SEQUENCES” (Ohio State Innovation Foundation, priority 2016, published 2024).)
